Results reported in ChEMBL document CHEMBL2406911, “Structure guided design of a series of sphingosine kinase (SphK) inhibitors” (Bioorg Med Chem Lett, 2013).
pEC50, pIC50, pKi: −log10 of the molar value.

Columns and labels:
[1] = molecular target: T1, Sphingosine kinase 1 (Homo sapiens, UniProt Q9NYA1)
Description: Inhibition of purified human SphK1 assessed as inhibition of formation of [33P]-S1P after 50 mins by scintillation counting

[2] = molecular target: T2, Sphingosine kinase 2 (Homo sapiens, UniProt Q9NRA0)
T2 sequence (Q9NRA0 whole entry): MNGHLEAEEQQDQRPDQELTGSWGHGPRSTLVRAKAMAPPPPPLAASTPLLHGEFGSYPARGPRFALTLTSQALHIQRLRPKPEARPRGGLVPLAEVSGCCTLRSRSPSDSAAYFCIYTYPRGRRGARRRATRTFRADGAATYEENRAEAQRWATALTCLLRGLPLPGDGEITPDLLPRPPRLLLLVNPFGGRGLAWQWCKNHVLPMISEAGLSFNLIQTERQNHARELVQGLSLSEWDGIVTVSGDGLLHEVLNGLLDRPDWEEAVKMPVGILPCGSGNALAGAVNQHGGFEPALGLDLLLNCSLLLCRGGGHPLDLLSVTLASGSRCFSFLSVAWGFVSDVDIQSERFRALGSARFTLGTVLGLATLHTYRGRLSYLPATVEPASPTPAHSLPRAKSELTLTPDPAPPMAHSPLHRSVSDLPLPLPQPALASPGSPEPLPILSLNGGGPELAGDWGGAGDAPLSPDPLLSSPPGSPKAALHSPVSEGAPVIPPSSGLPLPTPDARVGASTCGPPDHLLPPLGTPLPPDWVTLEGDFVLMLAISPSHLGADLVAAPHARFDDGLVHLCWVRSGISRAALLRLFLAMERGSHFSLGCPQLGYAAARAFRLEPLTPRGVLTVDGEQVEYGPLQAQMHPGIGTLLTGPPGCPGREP
Description: Inhibition of purified human SphK2 assessed as inhibition of formation of [33P]-S1P after 50 mins by scintillation counting

[3] = molecular target: T1, Sphingosine kinase 1; remark: listed apart in the source
Description: Inhibition of SphK1 in human WM266-4 cells assessed as inhibition of formation of [17C]-S1P formation after 20 mins by LC-MS analysis

[4] = Mean residence time in rat at 0.5 mg/kg, iv; type: ADME, organism-based; design: dose 0.5 mg/kg, route intravenous; details: in vivo
[5] = Volume of distribution at steady state in rat at 0.5 mg/kg, iv; type: ADME, organism-based; design: dose 0.5 mg/kg, route intravenous; details: in vivo, read-out: Vdss
[6] = Fraction unbound in rat plasma by ultra-centrifugation method; type: ADME, cell-free
[7] = Clearance in rat at 0.5 mg/kg, iv; type: ADME, organism-based; design: dose 0.5 mg/kg, route intravenous; details: in vivo
[8] = molecular target: Sphingosine kinase 1 (Mus musculus, UniProt Q8CI15); experiment: Inhibition of mouse SphK1
[9] = molecular target: T3, Sphingosine kinase 2 (Mus musculus, UniProt Q9JIA7); experiment: Inhibition of mouse SphK2
T3 sequence (Q9JIA7 whole entry): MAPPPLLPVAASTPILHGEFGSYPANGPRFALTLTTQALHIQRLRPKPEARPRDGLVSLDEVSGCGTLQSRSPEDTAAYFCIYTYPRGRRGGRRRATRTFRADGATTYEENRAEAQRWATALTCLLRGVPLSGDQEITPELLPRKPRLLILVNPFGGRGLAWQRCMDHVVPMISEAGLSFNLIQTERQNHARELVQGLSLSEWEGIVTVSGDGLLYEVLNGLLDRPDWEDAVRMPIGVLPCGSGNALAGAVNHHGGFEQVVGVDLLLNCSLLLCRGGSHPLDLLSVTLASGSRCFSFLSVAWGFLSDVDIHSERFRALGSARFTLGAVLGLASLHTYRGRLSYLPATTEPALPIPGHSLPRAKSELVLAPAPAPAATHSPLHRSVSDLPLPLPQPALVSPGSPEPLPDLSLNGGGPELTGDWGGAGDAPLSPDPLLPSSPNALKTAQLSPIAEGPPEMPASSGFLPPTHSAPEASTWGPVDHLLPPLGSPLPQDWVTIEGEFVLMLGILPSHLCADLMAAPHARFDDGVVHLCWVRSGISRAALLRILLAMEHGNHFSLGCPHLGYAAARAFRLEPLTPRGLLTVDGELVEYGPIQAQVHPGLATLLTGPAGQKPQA

[10] = Fraction unbound in human plasma by ultra-centrifugation method; type: ADME, cell-free
[11] = Oral bioavailability in mouse at 5 mg/kg; type: ADME, organism-based; details: in vivo
[12] = Mean residence time in mouse at 5 mg/kg, po; type: ADME, organism-based; design: dose 5 mg/kg, route oral; details: in vivo
[13] = Clearance in mouse at 5 mg/kg, po; type: ADME, organism-based; design: dose 5 mg/kg, route oral; details: in vivo

T1 sequence (Q9NYA1 whole entry): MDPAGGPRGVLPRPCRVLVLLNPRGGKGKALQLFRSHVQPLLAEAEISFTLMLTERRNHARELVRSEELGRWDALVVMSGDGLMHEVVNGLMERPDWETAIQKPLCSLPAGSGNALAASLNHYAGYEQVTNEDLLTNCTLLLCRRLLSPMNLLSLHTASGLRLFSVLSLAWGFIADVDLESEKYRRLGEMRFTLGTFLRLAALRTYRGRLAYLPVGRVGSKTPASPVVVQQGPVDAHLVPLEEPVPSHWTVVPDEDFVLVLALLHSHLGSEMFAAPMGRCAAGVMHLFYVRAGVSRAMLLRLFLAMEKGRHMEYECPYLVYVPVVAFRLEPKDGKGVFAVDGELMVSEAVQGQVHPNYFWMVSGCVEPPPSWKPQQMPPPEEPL
Sphingosine kinase 1 (Mus musculus, UniProt Q8CI15), sequence (Q8CI15 whole entry): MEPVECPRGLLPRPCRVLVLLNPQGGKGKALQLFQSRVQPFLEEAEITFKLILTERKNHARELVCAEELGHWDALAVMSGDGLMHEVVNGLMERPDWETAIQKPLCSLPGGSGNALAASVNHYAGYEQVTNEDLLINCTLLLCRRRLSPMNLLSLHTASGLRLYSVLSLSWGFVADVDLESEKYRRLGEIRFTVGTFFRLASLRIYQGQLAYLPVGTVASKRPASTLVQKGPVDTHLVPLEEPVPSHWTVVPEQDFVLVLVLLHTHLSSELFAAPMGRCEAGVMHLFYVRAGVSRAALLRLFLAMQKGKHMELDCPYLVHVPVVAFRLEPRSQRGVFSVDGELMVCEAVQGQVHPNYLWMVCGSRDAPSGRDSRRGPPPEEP

Row | Structure (SMILES) | pIC50 [1] | pIC50 [2] | also measured
1 | CCCCCCCCCCCCc1ccc(C(=O)NC2(C(=N)N)CC2)cc1 |  |  | pKi [1]: 6.70; pKi [2]: 6.30
2 | N=C(N)[C@@H]1CCCN1C(=O)c1ccc(-c2nc(-c3cccc(CCC4CCCCC4)c3)co2)cc1 |  |  | pKi [1]: 7.30; pKi [2]: 5.38
3 | OC[C@@H]1CCCN1CCc1ccc(Nc2nc(-c3ccc4ccccc4c3)cs2)cc1 | 6.00 | 5.60 | 
4 | OC[C@H]1CCCN1CCc1ccc(Nc2nc(-c3ccc4ccccc4c3)cs2)cc1 | 6.24 | 5.57 | 
5 | COC[C@H]1CCCN1CCc1ccc(Nc2nc(-c3ccc4ccccc4c3)cs2)cc1 |  | 5.24 | 
6 | CCCCc1ccc(/C=C/[C@H](O)[C@@H](CO)NC)cc1 |  |  | pKi [1]: 5.00; pKi [2]: < 4.00
7 | OC[C@H]1C[C@@H](O)CCN1CCc1ccc(Nc2nc(C3CCCC3)cs2)cc1 | 6.89 | < 5.30 | pEC50 [3]: 6.07
8 | OC[C@H]1C[C@@H](O)CCN1CCc1ccc(Nc2nc(-c3ccc(Cl)cc3Cl)cs2)cc1 |  |  | MRT [4]: 14 h; Vd [5]: 18 L/kg; fraction unbound [6]: 0.01; clearance [7]: 21.7 mL/min/kg; pIC50 [8]: 7.70; pIC50 [9]: < 5.00; fraction unbound [10]: 0.02
9 | OCC1CCCCN1CCc1ccc(Nc2nc(-c3ccc4ccccc4c3)cs2)cc1 (configuration not stated) | 6.85 |  | 
10 | OCCC1CCCCN1CCc1ccc(Nc2nc(-c3ccc4ccccc4c3)cs2)cc1 (configuration not stated) | < 5.00 | < 5.00 | 
11 | OC[C@@H]1CCCCN1CCc1ccc(Nc2nc(-c3ccc4ccccc4c3)cs2)cc1 | 5.96 |  | 
12 | OC[C@H]1C[C@@H](O)CN1CCc1ccc(Nc2nc(-c3ccc(Cl)c(Cl)c3)cs2)cc1 |  | 7.05 | Vd [5]: > 100 L/kg; clearance [7]: > 233 mL/min/kg
13 | OC[C@H]1C[C@H](O)CN1CCc1ccc(Nc2nc(-c3ccc(Cl)c(Cl)c3)cs2)cc1 |  | 6.60 | Vd [5]: > 100 L/kg; clearance [7]: > 233 mL/min/kg
14 | OC[C@H]1C[C@H](O)CN1CCCc1ccc(Nc2nc(-c3ccc(Cl)c(Cl)c3)cs2)cc1 | 7.52 | 7.05 | Vd [5]: > 100 L/kg; clearance [7]: > 233 mL/min/kg
15 | OC[C@H]1CCCCN1CCc1ccc(Nc2nc(-c3cccc(Cl)c3)cs2)cc1 | 6.57 |  | 
16 | N#Cc1ccc(-c2csc(Nc3ccc(CCN4CCCC[C@@H]4CO)cc3)n2)cc1 | < 5.00 |  | 
17 | OC[C@H]1C[C@@H](O)CCN1CCc1ccc(Nc2nc(-c3ccccc3)cs2)cc1 | 7.15 |  | pEC50 [3]: 6.51
18 | OC[C@H]1C[C@@H](O)CCN1CCc1ccc(Nc2nc(-c3cccc(F)c3)cs2)cc1 |  | < 5.30 | 
19 | OC[C@H]1C[C@@H](O)CCN1CCc1ccc(Nc2nc(-c3ccc(Cl)cc3)cs2)cc1 | 8.10 |  | pEC50 [3]: 6.89
20 | Cc1ccc(-c2csc(Nc3ccc(CCN4CC[C@H](O)C[C@@H]4CO)cc3)n2)cc1 | 8.15 |  | 
21 | OC[C@H]1C[C@@H](O)CCN1CCc1ccc(Nc2nc(-c3ccc(C(F)(F)F)cc3)cs2)cc1 |  |  | MRT [4]: 12 h; Vd [5]: 17 L/kg; fraction unbound [6]: 0.03; bioavailability [11]: 32%; clearance [7]: 23.3 mL/min/kg; pIC50 [8]: 7.15; MRT [12]: 13 h; CL/F [13]: 11.7 mL/min/kg; fraction unbound [10]: 0.04
22 | CCCCc1csc(Nc2ccc(CCN3CC[C@H](O)C[C@@H]3CO)cc2)n1 | 7.15 | < 5.30 | pEC50 [3]: 6.43

More lines, main results first:

Row | pIC50 [1] | pIC50 [2] | Structure (SMILES) | also measured
23 |  | 5.60 | OCC1CCN1CCc1ccc(Nc2nc(-c3ccc4ccccc4c3)cs2)cc1 (configuration not stated) | 
24 | 8.30 |  | OC[C@H]1C[C@@H](O)CCN1CCc1ccc(Nc2nc(-c3cccc(C(F)(F)F)c3F)cs2)cc1 | pEC50 [3]: 6.60
25 |  | < 5.00 | OCC1CCCCCN1CCc1ccc(Nc2nc(-c3ccc4ccccc4c3)cs2)cc1 (configuration not stated) | 
26 |  | 5.77 | CN1CCN(CCc2ccc(Nc3nc(-c4ccc5ccccc5c4)cs3)cc2)C(CO)C1 (configuration not stated) | 
27 |  | < 5.00 | OCC1COCCN1CCc1ccc(Nc2nc(-c3ccc4ccccc4c3)cs2)cc1 (configuration not stated) | 
28 |  | 5.52 | O=S1(=O)CCN(CCc2ccc(Nc3nc(-c4ccc(Cl)c(Cl)c4)cs3)cc2)C(CO)C1 (configuration not stated) | 
29 | 7.10 |  | OC[C@H]1CCCCN1CCc1ccc(Nc2nc(-c3ccc4ccccc4c3)cs2)cc1 | 
30 | 5.60 | < 5.00 | OC[C@H]1C[C@@H](O)CCN1CCCc1ccc(Nc2nc(-c3ccc(Cl)c(Cl)c3)cs2)cc1 | 
31 | 7.52 | 6.57 | OC[C@H]1C[C@@H](O)CN1CCCc1ccc(Nc2nc(-c3ccc(Cl)c(Cl)c3)cs2)cc1 | Vd [5]: > 100 L/kg; clearance [7]: > 233 mL/min/kg
32 | 7.10 |  | OC[C@H]1CCCCN1CCc1ccc(Nc2nc(-c3ccc(Cl)cc3)cs2)cc1 | 
33 | < 5.30 | < 5.00 | CC(C)(C)c1csc(Nc2ccc(CCN3CC[C@H](O)C[C@@H]3CO)cc2)n1 | 
